Values quoted from earlier work as cited in patent publication US20200114015A1, “Novel Alpha-Hydroxy Carboxylic Acid And Derivatives And Other GRAS- Based Prodrugs Of Gamma-Hydroxybutyrate (GHB) And Uses Thereof” (priority 2017, published 2020).

Details: GHB marketed as Xyrem

O=C(O)CCCO [GHB, gamma-hydroxybutyrate]
bioavailability: ~25% | half life: 30 to 60 min
